Legend:
[1] = test system: solid tumor overexpressing or expressing activated EGFR or ErbB2; assay: Open label, multi-dose clinical trial in subjects with cancer; type: in vivo, human
p95 = assay: Western blot of phospho-p95 in S1 cells; details: 5 μM, 24 hours
p185^ErbB2 [2] = biological target: T1, p185^ErbB2 (Homo sapiens, UniProt P04626); assay: Western blot of phospho-p185ErbB2 in Hb4a cells; details: parental Hb4a cells, 5 μM, 24 hours
BT474 cells = assay: Proliferation of BT474 cells; type: cell-based, human
p95^ErbB2 [3] = assay: p95ErbB2 in BT474 tumor xenografts (Western blot); type: in vivo, mice
Excerpt: (§1) BT474 tumor xenografts were established in CD-1 nude mice.

Erk1/2 and AKT = assay: Activation of Erk1/2 and AKT by EGF and heregulin in BT474 cells; type: cell-based, human; details: 1 μM
ErbB3 = ErbB3 phosphorylation in BT474 tumor xenografts (IP Western blot); details: 100 mg/kg/dose, compared with vehicle
Description: Tumors were removed 4 hours after the last dose, frozen in liquid Nitrogen, and stored at −80° C. until analysis. For the terminal biopsy, mice were euthanized with CO2 inhalation. Cell extracts were prepared by homogenization in RIPA buffer at 4° C.
As shown in FIG. 6a-6c, the activation-state of EGFR, p185^ErbB2, p95^ErbB2, and ErbB3 was assessed by IP Western blot.

p185^ErbB2 [4] = biological target: T1, p185^ErbB2; assay: Western blot of phospho-p185ErbB2 in S1 cells; details: 5 μM, 24 hours
p185^ErbB2 [5] = biological target: T1, p185^ErbB2; assay: Western blot of p185ErbB2 in BT474 cells; type: cell-based; set-up: The full-length ErbB2 receptor (p185^ErbB2); endogenous in cells; host or cells: BT474
Description: (§2) Equal amounts of protein were separated by SDS-PAGE and then ErbB2, p95^ErbB2, pTyr/p95^ErbB2, and pTyr/ErbB2 steady state protein levels were assessed by Western blot. […] Along the left side of the lanes, the uppermost arrow indicates p185; lower arrowhead indicates p95. Molecular weights are indicated on the right side of the figure.

[6] = test system: MAPK-Erk1/2 and PI3K-AKT pathways, cyclin D1/2; assay: Downstream signaling in BT474 tumor xenografts (Western blot); type: in vivo, mice
Description: Equal amounts of protein from tumor xenograft whole cell extracts were separated by SDS-PAGE and steady state protein levels of total and phosphorylated forms Erk1/2 and AKT were assessed by Western blot. Cyclin D1/2 steady state protein levels were also determined.

p185^ErbB2 [7] = biological target: T1, p185^ErbB2; assay: p185ErbB2 in BT474 tumor xenografts (Western blot); type: in vivo, mice; set-up: The full-length ErbB2 receptor (p185^ErbB2); from tissue; host or cells: BT474 tumour xenografts in mice; details: GW572016 100 mg/kg/dose PO or trastuzumab IP
Excerpt: as §1

p95^ErbB2 [8] = assay: Western blot of p95ErbB2 in BT474 cells; type: cell-based, human
Description: as §2

[9] = 11 breast cancer subjects previously treated with trastuzumab
[10] = 24 hours, 0.5 μM GW572016 or 10 μg/ml trastuzumab
[11] = GW572016 or trastuzumab (10 mg/kg)

T1 sequence (P04626 23-1255): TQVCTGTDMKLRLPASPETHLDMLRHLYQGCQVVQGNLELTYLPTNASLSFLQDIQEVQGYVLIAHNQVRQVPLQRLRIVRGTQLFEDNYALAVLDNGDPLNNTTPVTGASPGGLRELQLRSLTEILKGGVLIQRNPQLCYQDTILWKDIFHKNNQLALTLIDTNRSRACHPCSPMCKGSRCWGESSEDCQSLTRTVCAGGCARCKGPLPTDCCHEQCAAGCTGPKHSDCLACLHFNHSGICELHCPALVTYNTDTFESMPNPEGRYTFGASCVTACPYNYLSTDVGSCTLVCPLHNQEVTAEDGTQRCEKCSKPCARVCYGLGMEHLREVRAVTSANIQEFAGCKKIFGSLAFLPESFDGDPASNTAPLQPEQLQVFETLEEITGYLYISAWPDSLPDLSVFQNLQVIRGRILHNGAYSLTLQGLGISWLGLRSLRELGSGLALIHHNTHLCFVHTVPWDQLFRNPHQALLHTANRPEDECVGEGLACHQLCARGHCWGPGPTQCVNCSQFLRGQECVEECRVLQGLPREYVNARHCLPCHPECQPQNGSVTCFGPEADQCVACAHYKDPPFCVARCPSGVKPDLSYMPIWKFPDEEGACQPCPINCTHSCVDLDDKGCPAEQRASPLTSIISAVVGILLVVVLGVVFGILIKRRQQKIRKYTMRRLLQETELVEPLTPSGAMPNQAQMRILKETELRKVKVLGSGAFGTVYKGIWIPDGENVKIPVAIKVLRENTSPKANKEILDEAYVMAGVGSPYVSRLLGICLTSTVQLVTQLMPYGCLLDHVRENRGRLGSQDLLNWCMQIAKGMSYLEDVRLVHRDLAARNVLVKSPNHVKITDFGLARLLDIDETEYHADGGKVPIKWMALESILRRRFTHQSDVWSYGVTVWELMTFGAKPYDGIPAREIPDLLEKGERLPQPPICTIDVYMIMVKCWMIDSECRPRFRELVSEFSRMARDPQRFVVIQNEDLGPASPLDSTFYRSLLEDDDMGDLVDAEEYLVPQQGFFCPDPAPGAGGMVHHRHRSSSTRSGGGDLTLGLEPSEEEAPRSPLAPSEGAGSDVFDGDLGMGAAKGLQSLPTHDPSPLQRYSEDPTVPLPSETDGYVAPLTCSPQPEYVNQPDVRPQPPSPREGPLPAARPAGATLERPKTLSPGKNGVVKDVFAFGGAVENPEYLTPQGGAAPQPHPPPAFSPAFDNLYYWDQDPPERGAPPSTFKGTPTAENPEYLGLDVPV

CS(=O)(=O)CCNCc1ccc(-c2ccc3ncnc(Nc4ccc(OCc5cccc(F)c5)c(Cl)c4)c3c2)o1 [GW572016, N-{3-Chloro-4-[(3-fluorobenzyl)oxy]phenyl}-6-[5-({[2-(methylsulfonyl)ethyl]amino}methyl)-2-furyl]-4-quinazolinamine]
Partial Responses among breast cancer subjects [1, 9]: three
Stable Disease among breast cancer subjects [1, 9]: four
breast cancer subjects exhibiting responses, of eleven ([1]; 11 breast cancer subjects, all previously treated with trastuzumab, oral ditosylate salt, daily): seven
response of bone metastases ([1]; Patient No. 361, 1200 mg/day): did not respond
time to disappearance of all subcutaneous nodules ([1]; Patient No. 361, 1200 mg/day): ≤ 28 days
anterior abdominal wall nodules ([1]; Patient No. 372, 1200 mg/day): improved
decrease in two right breast masses ([1]; Patient No. 372, 1200 mg/day, August to October 2002): 70%
stable disease, number of subjects ([1]; adenocarcinoma of unknown primary origin): 1
stable disease, number of subjects ([1]; colorectal cancer): 2
stable disease, number of subjects ([1]; granular cell cancer): 1
stable disease, number of subjects ([1]; head and neck cancer): 1
total responses out of 33 subjects ([1]; initial 33 subjects with validated responses, all tumor types): 15
stable disease, number of subjects ([1]; lung cancer): 1
stable disease, number of subjects ([1]; ovarian cancer): 2
p95 phosphorylation (p95): inhibited
phosphorylation of p185ErbB2 (p185^ErbB2 [2]): inhibited
proliferation of BT474 cells (BT474 cells): inhibited
reversal of antiproliferative effect in the presence of EGF (BT474 cells; BT474 cells): not completely reversed
effect of prolonged incubation on protection by heregulin (BT474 cells; BT474 cells, 1 μM, prolonged incubation (data not shown)): abrogated the protective effects of heregulin
reversal of inhibitory effects by addition of heregulin (BT474 cells; BT474 cells, 72 hour assay): partially reversed
steady state protein levels of total p95ErbB2 (p95^ErbB2 [3]; GW572016 100 mg/kg/dose PO or trastuzumab IP): unchanged
phospho-p95ErbB2 steady state protein levels (p95^ErbB2 [3]; GW572016 100 mg/kg/dose PO, 100 mg/kg): markedly inhibited
Y1248 phosphorylation in p95ErbB2 (p95^ErbB2 [3]; GW572016 100 mg/kg/dose or trastuzumab): inhibited
EGF-induced increase of p-Erk1/2 steady state protein levels (Erk1/2 and AKT; EGF 50 ng/ml 15 minutes): blocked
HRG-induced AKT phosphorylation (Erk1/2 and AKT; HRG): partially inhibited
ErbB3 tyrosine phosphorylation (ErbB3): markedly inhibited
p185ErbB2 phosphorylation (p185^ErbB2 [4]): inhibited
phosphorylation of p185ErbB2 in presence and absence of HRG and EGF (p185^ErbB2 [5]; 1 μM, 16 hours, ErbB2 IP): inhibited
p185ErbB2 phosphorylation (anti-pTyr Western blot) (p185^ErbB2 [5]; 1 μM, 24 hours): inhibited
steady-state p185ErbB2 protein levels (anti-ErbB2 ECD mAb) (p185^ErbB2 [5]; [10]): did not vary
tyrosine phosphorylation of p185ErbB2 (anti-pTyr mAb) (p185^ErbB2 [5]; [10]): inhibited
total steady state protein levels of Erk1/2 and AKT [6]: without affecting
cyclin D steady state protein levels [6, 11]: inhibited
p-AKT steady state protein levels [6, 11]: inhibited
p-Erk1/2 steady state protein levels [6, 11]: inhibited
phospho-p185ErbB2 steady state protein levels (p185^ErbB2 [7]): inhibited
steady state protein levels of total p185ErbB2 (p185^ErbB2 [7]): unchanged
phosphorylation of p95ErbB2 in presence and absence of HRG and EGF (p95^ErbB2 [8]; 1 μM, 16 hours, ErbB2 IP): inhibited
HRG-induced p95ErbB2 phosphorylation (p95^ErbB2 [8]; 1 μM, 16 hours, HRG 5 nM 15 min, ErbB3 IP): partially blocked
tyrosine phosphorylation of p95ErbB2 (anti-pTyr mAb) (p95^ErbB2 [8]; [10]): inhibited

Source: patent US7829297B2, “Treatment of cancers expressing p95 ErbB2” (GlaxoSmithKline LLC, priority 2003, dated 2010)
